Reference: PubChem BioAssay AID1259411 (Chemical Carcinogenesis Research Information System (CCRIS), 2018)
Calls of active or inactive are those of the source. No rule for the calls is given here.

System: rodent carcinogenicity bioassays, tumor incidence
Assay: CCRIS carcinogenicity studies
In short: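 Archive of carcinogenicity, mutagenicity, tumor promotion and tumor inhibition results drawn from journals, NCI reports and other sources, expert-reviewed; covers 1985-2011 and is no longer updated.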

SMILES: O=C(O)CCCCCCCCC(=O)O
- carcinogen call (Species: RABBIT, Strain/Sex: NEW ZEALAND/FEMALE, Route: ORAL, Dose: 0, 750, 1000 MG/KG/BW IN DIET FOR 6 MO (STUDY DURATION: 181 D), Dose: 0, 750, 1000 MG/KG/BW IN DIET FOR 6 MO (STUDY DURATION: 181 D)): inactive; negative
- carcinogen call (Species: RABBIT, Strain/Sex: NEW ZEALAND/MALE, Route: ORAL, Dose: 0, 750, 1000 MG/KG/BW IN DIET FOR 6 MO (STUDY DURATION: 181 D), Dose: 0, 750, 1000 MG/KG/BW IN DIET FOR 6 MO (STUDY DURATION: 181 D)): inactive; negative
- carcinogen call (Species: RAT, Strain/Sex: WISTAR/FEMALE, Route: ORAL, Dose: 0, 500, 1000 MG/KG/BW IN DIET FOR 6 MO (STUDY DURATION: 181 D), Dose: 0, 500, 1000 MG/KG/BW IN DIET FOR 6 MO (STUDY DURATION: 181 D)): inactive; negative
- carcinogen call (Species: RAT, Strain/Sex: WISTAR/MALE, Route: ORAL, Dose: 0, 500, 1000 MG/KG/BW IN DIET FOR 6 MO (STUDY DURATION: 181 D), Dose: 0, 500, 1000 MG/KG/BW IN DIET FOR 6 MO (STUDY DURATION: 181 D)): inactive; negative

SMILES: O=[N+]([O-])c1ccc2nc[nH]c2c1
- carcinogen call (Species: MOUSE, Strain/Sex: B6C3F1/FEMALE, Route: ORAL, Dose: 0, 0.12, 0.24% OF DIET, Dose: 0, 0.12, 0.24% OF DIET, Tumor Site: Type of Lesion: LIVER: HEPATOCELLULAR CARCINOMA OR HEPATOCELLULAR ADENOMA): active; positive
- carcinogen call (Species: MOUSE, Strain/Sex: B6C3F1/MALE, Route: ORAL, Dose: 0, 0.12, 0.24% OF DIET, Dose: 0, 0.12, 0.24% OF DIET, Tumor Site: Type of Lesion: LIVER: HEPATOCELLULAR CARCINOMA OR HEPATOCELLULAR ADENOMA): active; positive
- carcinogen call (Species: RAT, Strain/Sex: F344/FEMALE, Route: ORAL, Dose: 0, 0.12, 0.5% OF DIET, Dose: 0, 0.12, 0.5% OF DIET): inactive; negative
- carcinogen call (Species: RAT, Strain/Sex: F344/MALE, Route: ORAL, Dose: 0, 0.12, 0.5% OF DIET, Dose: 0, 0.12, 0.5% OF DIET): inactive; negative

SMILES: c1ccncc1
- carcinogen call (Species: MOUSE, Strain/Sex: B6C3F1/FEMALE, Route: ORAL, Dose: 0, 125, 250, 500 PPM IN DRINKING WATER FOR 105 WK (STUDY DURATION: 105 WK), Dose: 0, 125, 250, 500 PPM IN DRINKING WATER FOR 105 WK (STUDY DURATION: 105 WK), Tumor Site: Type of Lesion: LIVER: HEPATOCELLULAR ADENOMA, HEPATOCELLULAR CARCINOMA, OR HEPATOBLASTOMA): active; positive
- carcinogen call (Species: MOUSE, Strain/Sex: B6C3F1/MALE, Route: ORAL, Dose: 0, 250, 500, 1000 PPM IN DRINKING WATER FOR 104 WK (STUDY DURATION: 104 WK), Dose: 0, 250, 500, 1000 PPM IN DRINKING WATER FOR 104 WK (STUDY DURATION: 104 WK), Tumor Site: Type of Lesion: LIVER: HEPATOCELLULAR ADENOMA, HEPATOCELLULAR CARCINOMA, OR HEPATOBLASTOMA): active; positive
- carcinogen call (Species: RAT, Strain/Sex: F344/FEMALE, Route: ORAL, Dose: 0, 100, 200, 400 PPM IN DRINKING WATER FOR 105 WK (STUDY DURATION: 105 WK), Dose: 0, 100, 200, 400 PPM IN DRINKING WATER FOR 105 WK (STUDY DURATION: 105 WK), Tumor Site: Type of Lesion: MULTIPLE ORGANS: MONONUCLEAR CELL LEUKEMIA): equivocal
- carcinogen call (Species: RAT, Strain/Sex: F344/MALE, Route: ORAL, Dose: 0, 100, 200, 400 PPM IN DRINKING WATER FOR 104 WK (STUDY DURATION: 104 WK), Dose: 0, 100, 200, 400 PPM IN DRINKING WATER FOR 104 WK (STUDY DURATION: 104 WK), Tumor Site: Type of Lesion: KIDNEY: RENAL TUBULE ADENOMA, RENAL TUBULE ADENOMA OR CARCINOMA): active; positive
- carcinogen call (Species: RAT, Strain/Sex: WISTAR/MALE, Route: ORAL, Dose: 0, 100, 200, 400 PPM IN DRINKING WATER FOR 104 WK (STUDY DURATION: 104 WK), Dose: 0, 100, 200, 400 PPM IN DRINKING WATER FOR 104 WK (STUDY DURATION: 104 WK), Tumor Site: Type of Lesion: TESTIS: INTERSTITIAL CELL ADENOMA): equivocal

SMILES: ClCC(Cl)Cl
- carcinogen call (Species: MOUSE, Strain/Sex: B6C3F1/FEMALE, Route: GAVAGE, Dose: 0, 195, 390 MG/KG/D, TWA, Dose: 0, 195, 390 MG/KG/D, TWA, Tumor Site: Type of Lesion: LIVER: HEPATOCELLULAR CARCINOMA): active; positive
- carcinogen call (Species: MOUSE, Strain/Sex: B6C3F1/MALE, Route: GAVAGE, Dose: 0, 195, 390 MG/KG/D, TWA, Dose: 0, 195, 390 MG/KG/D, TWA, Tumor Site: Type of Lesion: LIVER: HEPATOCELLULAR CARCINOMA): active; positive
- carcinogen call (Species: RAT, Strain/Sex: OSBORNE-MENDEL/FEMALE, Route: GAVAGE, Dose: 0, 46, 92 MG/KG/D, TWA, Dose: 0, 46, 92 MG/KG/D, TWA): inactive; negative
- carcinogen call (Species: RAT, Strain/Sex: OSBORNE-MENDEL/MALE, Route: GAVAGE, Dose: 0, 46, 92 MG/KG/D, TWA, Dose: 0, 46, 92 MG/KG/D, TWA): inactive; negative

SMILES: COc1cc2c(c3oc(=O)c4c(c13)CCOC4=O)[C@@H]1C=CO[C@@H]1O2
- carcinogen call (Species: HUMAN, Route: ORAL, Tumor Site: Type of Lesion: LIVER): active; positive
- carcinogen call (Species: RAT, Route: ORAL, Tumor Site: Type of Lesion: KIDNEY): active; positive

SMILES: CCCCC/C=N/N(C)C=O
- carcinogen call (Species: MOUSE, Strain/Sex: SWISS/FEMALE, Route: GAVAGE, Dose: 0, 50, 100 UG/G/BW IN 0.01 ML OF PROPYLENE GLYCOL 1/WK FOR 52 WK (STUDY DURATION: 130 WK), Dose: 0, 50, 100 UG/G/BW IN 0.01 ML OF PROPYLENE GLYCOL 1/WK FOR 52 WK (STUDY DURATION: 130 WK), Tumor Site: Type of Lesion: LUNG: ADENOMA OR ADENOCARCINOMA, LIVER: HEPATOMA OR CARCINOMA): active; positive
- carcinogen call (Species: MOUSE, Strain/Sex: SWISS/MALE, Route: GAVAGE, Dose: 0, 50, 100 UG/G/BW IN 0.01 ML OF PROPYLENE GLYCOL 1/WK FOR 52 WK (STUDY DURATION: 130 WK), Dose: 0, 50, 100 UG/G/BW IN 0.01 ML OF PROPYLENE GLYCOL 1/WK FOR 52 WK (STUDY DURATION: 130 WK), Tumor Site: Type of Lesion: LUNG: ADENOMA AND ADENOCARCINOMA, PREPUTIAL GLAND: SQUAMOUS CELL PAPILLOMA OR SQUAMOUS CELL CARCINOMA OR ADENOMA): active; positive

SMILES: N#Cc1cc(Br)c(O)c(Br)c1
- carcinogen call (Species: Mouse, Strain/Sex: Crl:CD-1 (ICR)BR VAF/Plus/Female (60/sex/group), Route: Oral, Dose: 0, 20, 75, 300 ppm in feed for 78-80 wk, Dose: 0, 20, 75, 300 ppm in feed for 78-80 wk, Tumor Site: Type of Lesion: Liver: Hepatocellular adenoma and carcinoma combined (0 ppm, 2/60; 300 ppm, 7/59)): active; positive at high dose only; purity 94.4%
- carcinogen call (Species: Mouse, Strain/Sex: Crl:CD-1 (ICR)BR VAF/Plus/Male (60/sex/group), Route: Oral, Dose: 0, 20, 75, 300 ppm in feed for 78-80 wk, Dose: 0, 20, 75, 300 ppm in feed for 78-80 wk, Tumor Site: Type of Lesion: Liver: Hepatocellular adenoma and carcinoma combined (5/60; 16/60; 12/60; 23/60)): active; positive; purity 94.4%

SMILES: CO/N=C(/C(=O)OC)c1ccccc1COc1ccccc1C
- carcinogen call (Species: Mouse, Strain/Sex: Strain not specified by Department of Pesticide Regulation /Female (50/Group), Route: Oral, Dose: 0, 81, 400, 1662 mg/kg/day of 93.7-96.6% kresoxim-methyl in diet for 18 mo, study duration 18 mo, Dose: 0, 81, 400, 1662 mg/kg/day of 93.7-96.6% kresoxim-methyl in diet for 18 mo, study duration 18 mo): inactive; negative
- carcinogen call (Species: Mouse, Strain/Sex: Strain not specified by Department of Pesticide Regulation /Male (50/Group), Route: Oral, Dose: 0, 60, 304, 1305 mg/kg/day of 93.7-96.6% kresoxim-methyl in diet for 18 mo, study duration 18 mo, Dose: 0, 60, 304, 1305 mg/kg/day of 93.7-96.6% kresoxim-methyl in diet for 18 mo, study duration 18 mo): inactive; negative
- carcinogen call (Species: Rat, Strain/Sex: Wistar/Female (20/Group), Route: Oral, Dose: 0, 12, 48, 503, 985 mg/kg/day of 93.7-96.6% kresoxim-methyl in diet for 24 mo, study duration 24 mo, Dose: 0, 12, 48, 503, 985 mg/kg/day of 93.7-96.6% kresoxim-methyl in diet for 24 mo, study duration 24 mo, Tumor Site: Type of Lesion: Liver: hepatocellular carcinoma (1/20, 0/20, 2/20, 6/20, 6/20)): active; positive
- carcinogen call (Species: Rat, Strain/Sex: Wistar/Female (50/Group), Route: Oral, Dose: 0, 12, 47, 497, 1046 mg/kg/day of 93.7-96.6% kresoxim-methyl in diet for 24 mo, study duration 24 mo, Dose: 0, 12, 47, 497, 1046 mg/kg/day of 93.7-96.6% kresoxim-methyl in diet for 24 mo, study duration 24 mo, Tumor Site: Type of Lesion: Liver: hepatocellular carcinoma (1/50, 1/50, 2/50, 13/50, 16/50)): active; positive
- carcinogen call (Species: Rat, Strain/Sex: Wistar/Male (20/Group), Route: Oral, Dose: 0, 9, 36, 370, 746 mg/kg/day of 93.7-96.6% kresoxim-methyl in diet for 24 mo, study duration 24 mo, Dose: 0, 9, 36, 370, 746 mg/kg/day of 93.7-96.6% kresoxim-methyl in diet for 24 mo, study duration 24 mo, Tumor Site: Type of Lesion: Liver: hepatocellular carcinoma (0/20, 1/20, 1/20, 3/20, 8/20)): active; positive
- carcinogen call (Species: Rat, Strain/Sex: Wistar/Male (50/Group), Route: Oral, Dose: 0, 9, 36, 375, 770 mg/kg/day of 93.7-96.6% kresoxim-methyl in diet for 24 mo, study duration 24 mo, Dose: 0, 9, 36, 375, 770 mg/kg/day of 93.7-96.6% kresoxim-methyl in diet for 24 mo, study duration 24 mo, Tumor Site: Type of Lesion: Liver: hepatocellular carcinoma (7/50, 5/50, 2/50, 18/50, 11/50). Spleen: hemangiosarcoma (0/50, 0/50, 2/50, 2/50, 3/50)): active; positive
